Measurements: ChEMBL document CHEMBL1128242, “Polyiodinated triglyceride analogs as potential computed tomography imaging agents for the liver” (J Med Chem, 1995)

Tests used:
[1] = test system: Rattus norvegicus; test: Polyacrylamide Gel Electrophoresis (PAGE) to determined the concentration of low density lipoprotein (LDL) in rats after iv administration of [125I]-labeled 2-Oleolyl 1,3-disubstituted triglycerols was reported; assay type: ADME, organism-based; settings: in vivo
[2] = test system: Rattus norvegicus; test: Distribution of radioactivity was determined in lung at 3h after intravenous administration of [125I]-labeled 2-oleoglycerol 1,3-Bis-[omega-(3-amino-2,4,6-triiodophenyl)alkanoates] in rats; assay type: ADME, organism-based; settings: in vivo
[3] = test system: Rattus norvegicus; test: Distribution of radioactivity was determined in liver at 24 hr after intravenous administration of [125I]-labeled 2-oleoglycerol 1,3-Bis-[omega-(3-amino-2,4,6-triiodophenyl)alkanoates] in rats; assay type: ADME, organism-based; settings: in vivo
[4] = test system: Rattus norvegicus; test: Distribution of radioactivity was determined in liver at 48 hr after intravenous administration of 1,3-Disubstituted Triacylglycerols in rats; assay type: ADME, organism-based; settings: in vivo
[5] = test system: Rattus norvegicus; test: Analysis of lipid-soluble radioactivity in plasma 24 hour after iv administration of [125I]-labeled 2-Oleoyl 1,3-disubstituted Triacylglycerols and represented as % CHCl3/CH3OH from rat; assay type: ADME, organism-based; settings: in vivo
[6] = test system: Rattus norvegicus; test: Distribution of radioactivity was determined in liver at 24 hr after intravenous administration of 1,3-Disubstituted Triacylglycerols in rats; assay type: ADME, organism-based; settings: in vivo
[7] = test system: Rattus norvegicus; test: Distribution of radioactivity was determined in heart at 30 min after intravenous administration of [125I]-labeled 2-oleoglycerol 1,3-Bis-[omega-(3-amino-2,4,6-triiodophenyl)alkanoates] in rats; assay type: ADME, organism-based; settings: in vivo, 0.5 h
[8] = test system: Rattus norvegicus; test: Polyacrylamide Gel Electrophoresis (PAGE) to determined the concentration of high density lipoprotein (HDL) in rats after iv administration of [125I]-labeled 2-Oleolyl 1,3-disubstituted triglycerols was reported; assay type: ADME, organism-based; settings: in vivo
[9] = test system: Rattus norvegicus; test: Polyacrylamide Gel Electrophoresis (PAGE) to determined the concentration of stacking gel(SG) in rats after iv administration of [125I]-labeled 2-Oleolyl 1,3-disubstituted triglycerols was reported; assay type: ADME, organism-based; settings: in vivo
[10] = test system: Rattus norvegicus; test: Distribution of radioactivity was determined in blood at 24 hr after intravenous administration of [125I]-labeled 2-oleoglycerol 1,3-Bis-[omega-(3-amino-2,4,6-triiodophenyl)alkanoates] in rats; assay type: ADME, organism-based; settings: in vivo
[11] = test system: Rattus norvegicus; test: Distribution of radioactivity was determined in blood at 48 hr after intravenous administration of 1,3-Disubstituted Triacylglycerols in rats; assay type: ADME, organism-based; settings: in vivo
[12] = test system: Rattus norvegicus; test: Polyacrylamide Gel Electrophoresis (PAGE) to determined the concentration of below albumin(BA) in rats after iv administration of [125I]-labeled 2-Oleolyl 1,3-disubstituted triglycerols was reported; assay type: ADME, organism-based; settings: in vivo
[13] = test system: Rattus norvegicus; test: Distribution of radioactivity was determined in spleen at 3h after intravenous administration of 1,3-Disubstituted Triacylglycerols in rats; assay type: ADME, organism-based; settings: in vivo
[14] = test system: Rattus norvegicus; test: Distribution of radioactivity was determined in thyroid at 24 hr after intravenous administration of [125I]-labeled 2-oleoglycerol 1,3-Bis-[omega-(3-amino-2,4,6-triiodophenyl)alkanoates] in rats; assay type: ADME, organism-based, Thyroid gland; settings: in vivo
[15] = test system: Rattus norvegicus; test: Distribution of radioactivity was determined in blood at 24 hr after intravenous administration of 1,3-Disubstituted Triacylglycerols in rats; assay type: ADME, organism-based; settings: in vivo
[16] = test system: Rattus norvegicus; test: Distribution of radioactivity was determined in spleen at 30 min after intravenous administration of 1,3-Disubstituted Triacylglycerols in rats; assay type: ADME, organism-based; settings: in vivo, 0.5 h
[17] = test system: Rattus norvegicus; test: Distribution of radioactivity was determined in blood at 30 min after intravenous administration of 1,3-Disubstituted Triacylglycerols in rats; assay type: ADME, organism-based; settings: in vivo, 0.5 h
[18] = test system: Rattus norvegicus; test: Distribution of radioactivity was determined in spleen at 3h after intravenous administration of [125I]-labeled 2-oleoglycerol 1,3-Bis-[omega-(3-amino-2,4,6-triiodophenyl)alkanoates] in rats; assay type: ADME, organism-based; settings: in vivo
[19] = test system: Rattus norvegicus; test: Analysis of lipid-soluble radioactivity in liver 24 hour after iv administration of [125I]-labeled 2-Oleoyl 1,3-disubstituted Triacylglycerols and represented as % CHCl3/CH3OH from rat; assay type: ADME, organism-based; settings: in vivo
[20] = test system: Rattus norvegicus; test: Distribution of radioactivity was determined in liver at 30 min after intravenous administration of 1,3-Disubstituted Triacylglycerols in rats; assay type: ADME, organism-based; settings: in vivo, 0.5 h
[21] = test system: Rattus norvegicus; test: Distribution of radioactivity was determined in lung at 24 hr after intravenous administration of [125I]-labeled 2-oleoglycerol 1,3-Bis-[omega-(3-amino-2,4,6-triiodophenyl)alkanoates] in rats; assay type: ADME, organism-based; settings: in vivo
[22] = test system: Rattus norvegicus; test: Distribution of radioactivity was determined in heart at 24 after intravenous administration of [125I]-labeled 2-oleoglycerol 1,3-Bis-[omega-(3-amino-2,4,6-triiodophenyl)alkanoates] in rats; assay type: ADME, organism-based; settings: in vivo
[23] = test system: Rattus norvegicus; test: Distribution of radioactivity was determined in spleen at 48 hr after intravenous administration of 1,3-Disubstituted Triacylglycerols in rats; assay type: ADME, organism-based; settings: in vivo
[24] = test system: Rattus norvegicus; test: Analysis of lipid-soluble radioactivity in plasma 0.5 hour after iv administration of [125I]-labeled 2-Oleoyl 1,3-disubstituted Triacylglycerols expressed as %parent compound (by TLC with authentic [125I]-labeled standard) from rat; assay type: ADME, organism-based; settings: in vivo
[25] = test system: Rattus norvegicus; test: Distribution of radioactivity was determined in liver at 3h after intravenous administration of 1,3-Disubstituted Triacylglycerols in rats; assay type: ADME, organism-based; settings: in vivo
[26] = test system: Rattus norvegicus; test: Distribution of radioactivity was determined in spleen at 24 hr after intravenous administration of [125I]-labeled 2-oleoglycerol 1,3-Bis-[omega-(3-amino-2,4,6-triiodophenyl)alkanoates] in rats; assay type: ADME, organism-based; settings: in vivo
[27] = test system: Rattus norvegicus; test: Distribution of radioactivity was determined in plasma at 30 min after intravenous administration of [125I]-labeled 2-oleoglycerol 1,3-Bis-[omega-(3-amino-2,4,6-triiodophenyl)alkanoates] in rats; assay type: ADME, organism-based; settings: in vivo, 0.5 h
[28] = test system: Rattus norvegicus; test: Distribution of radioactivity was determined in kidney at 30 min after intravenous administration of [125I]-labeled 2-oleoglycerol 1,3-Bis-[omega-(3-amino-2,4,6-triiodophenyl)alkanoates] in rats; assay type: ADME, organism-based; settings: in vivo, 0.5 h
[29] = test system: Rattus norvegicus; test: Analysis of lipid-soluble radioactivity in plasma 0.5 hour after iv administration of [125I]-labeled 2-Oleoyl 1,3-disubstituted Triacylglycerols and represented as % CHCl3/CH3OH from rat; assay type: ADME, organism-based; settings: in vivo
[30] = test system: Rattus norvegicus; test: Analysis of lipid-soluble radioactivity in liver 24 hour after iv administration of [125I]-labeled 2-Oleoyl 1,3-disubstituted Triacylglycerols expressed as %parent compound (by TLC with authentic [125I]-labeled standard) from rat; assay type: ADME, organism-based; settings: in vivo
[31] = test system: Rattus norvegicus; test: Distribution of radioactivity was determined in spleen at 24 hr after intravenous administration of 1,3-Disubstituted Triacylglycerols in rats; assay type: ADME, organism-based; settings: in vivo
[32] = test system: Rattus norvegicus; test: Distribution of radioactivity was determined in kidney at 24 hr after intravenous administration of [125I]-labeled 2-oleoglycerol 1,3-Bis-[omega-(3-amino-2,4,6-triiodophenyl)alkanoates] in rats; assay type: ADME, organism-based; settings: in vivo
[33] = test system: Rattus norvegicus; test: Distribution of radioactivity was determined in liver at 30 min after intravenous administration of [125I]-labeled 2-oleoglycerol 1,3-Bis-[omega-(3-amino-2,4,6-triiodophenyl)alkanoates] in rats; assay type: ADME, organism-based; settings: in vivo, 0.5 h
[34] = test system: Rattus norvegicus; test: Distribution of radioactivity was determined in lung at 30 min after intravenous administration of [125I]-labeled 2-oleoglycerol 1,3-Bis-[omega-(3-amino-2,4,6-triiodophenyl)alkanoates] in rats; assay type: ADME, organism-based; settings: in vivo, 0.5 h
[35] = test system: Rattus norvegicus; test: Distribution of radioactivity was determined in liver at 3h after intravenous administration of [125I]-labeled 2-oleoglycerol 1,3-Bis-[omega-(3-amino-2,4,6-triiodophenyl)alkanoates] in rats; assay type: ADME, organism-based; settings: in vivo

Compound: CCCCCCCC/C=C/CCCCCCCC(=O)OC(COC(=O)C(CC)Cc1c(I)cc(I)c(N)c1I)COC(=O)C(CC)Cc1c(I)cc(I)c(N)c1I (stereo not given)
- Radioactivity [1]: 7.4%
- Distribution of radioactivity [2]: 0.2 % dose/g
- Distribution of radioactivity [3]: 10.2 % dose/g
- Distribution of radioactivity [4]: 71.6 % dose/organ
- Lipid-soluble radioactivity [5]: 83
- Distribution of radioactivity [6]: 77 % dose/organ
- Distribution of radioactivity [7]: 0.84 % dose/g
- Radioactivity [8]: 2.5%
- Radioactivity [9]: 83.5%
- Distribution of radioactivity [10]: 0.01 % dose/g
- Distribution of radioactivity [11]: 0.1 % dose per organ
- Radioactivity [12]: 1.5%
- Distribution of radioactivity [13]: 11.3 % dose/organ
- Distribution of radioactivity [14]: 17.3 % dose/g
- Distribution of radioactivity [15]: 0.1 % dose/organ
- Distribution of radioactivity [16]: 14.4 % dose/organ
- Distribution of radioactivity [17]: 2.6 % dose/organ
- Distribution of radioactivity [18]: 17.7 % dose/g
- Lipid-soluble radioactivity [19]: 93.7
- Radioactivity per organ [20]: 78 % dose/organ
- Distribution of radioactivity [21]: 0.62 % dose/g
- Distribution of radioactivity [22]: 0.06 % dose/g
- Distribution of radioactivity [23]: 9.8 % dose per organ
- Lipid-soluble radioactivity [24]: 26.5
- Distribution of radioactivity [25]: 80 % dose/organ
- Distribution of radioactivity [26]: 21.7 % dose/g
- Distribution of radioactivity [27]: 0.42 % dose/g
- Distribution of radioactivity [28]: 0.07 % dose/g
- Lipid-soluble radioactivity [29]: 88.2
- Lipid-soluble radioactivity [30]: 64.7
- Distribution of radioactivity [31]: 12.5 % dose/organ
- Distribution of radioactivity [32]: 0.05 % dose/g
- Distribution of radioactivity [33]: 9.67 % dose/g
- Distribution of radioactivity [34]: 0.34 % dose/g
- Distribution of radioactivity [35]: 9 % dose/g
